Reference: paper PMC5784245, “An Optimized Synthetic-Bioinformatic Natural Product Antibiotic Sterilizes Multidrug-Resistant Acinetobacter baumannii-Infected Wounds” (mSphere, 2018)
Values after ≈ are worked out from the molar mass of the structure shown. Like-named read-outs stand apart in the source and are kept apart here. Non-standard residues stand in square brackets, D forms with d. Residues, ends and D or L forms follow the SMILES beside them. *: point of attachment. Decanoyl = CCCCCCCCCC(=O)*; dOrn = NCCC[C@@H](N)C(=O)O; Orn = NCCC[C@H](N)C(=O)O

Experiments:
Acinetobacter baumannii = assay type: cell-based
Description: (§1) Wang resins were purchased from Matrix Innovation. Reagents for peptide synthesis were purchased from P3 BioSystems, Chempep, and Chem-Impex International. The fluorescent dyes DiBAC4 and SYTOX were purchased from Thermo Fisher Scientific, and media were prepared from premixed powders: brain heart infusion for S. sobrinus and L. rhamnosus (Hardy Diagnostics), yeast extract-peptone-dextrose for C. albicans, lysogeny broth (LB) for all other bacteria (BD Biosciences), and McCoy’s 5A medium with 10% fetal bovine serum for HT-29 cells (American Type Culture Collection). All other chemicals and consumables were purchased from Sigma-Aldrich and VWR International. Paenimucillin 4F for in vivo studies was purchased from Ontores Biotechnologies as a high-performance liquid chromatography (HPLC)-purified peptide and used as is. Dye assays were performed in a Gen5 microtiter plate reader (Biotek Instruments). Liquid chromatography-mass spectrometry (LC-MS) analyses were performed by using an Acquity system (Waters Corporation).
(§2) Standard susceptibility assays were performed in LB medium in 96-well microtiter plates to determine the MIC by the broth microdilution method in accordance with protocols recommended by Clinical and Laboratory Standards Institute ([35]). Cytotoxicity was assessed using human HT-29 cells based on a similar broth microdilution method ([36]). All assays were performed in duplicate. For the cytotoxicity assay, 5,000 HT-29 cells per well were seeded into a microtiter plate and cultured for 24 h at 37°C in a 5% CO2 atmosphere. Peptides were supplemented at concentrations ranging from 128 to 0.5 μg/ml, and the cells were incubated for another 20 h. Growth media were removed, 3-(4,5-dimethylthiazol-2-yl)-2,5-diphenyltetrazolium bromide (MTT) was added to all wells (220 μl per well at 0.5 mg/ml), the mixture was incubated for 4 h, and then the media were discarded. Cell viability was determined by visual inspection.

Bacillus subtilis = assay type: cell-based; conditions: 24 h
Description: as §1, §2

Enterococcus faecalis = assay type: cell-based; conditions: 24 h
Description: as §1, §2

Enterococcus faecium = assay type: cell-based
Description: as §1, §2

Lactobacillus rhamnosus = assay type: cell-based; conditions: 24 h
Description: as §1, §2

Staphylococcus aureus = assay type: cell-based; conditions: 24 h
Description: as §1, §2

Streptococcus sobrinus = assay type: cell-based; conditions: 24 h
Description: as §1, §2

Enterobacter cloacae = assay type: cell-based; conditions: 24 h
Description: as §1, §2

Klebsiella pneumoniae = assay type: cell-based; conditions: 24 h
Description: as §1, §2

Pseudomonas aeruginosa = assay type: cell-based; conditions: 24 h
Description: as §1, §2

[1] = tested on: A. baumannii clinical isolate 1788; assay type: cell-based, Acinetobacter baumannii; conditions: clinical isolate 1788, 24 h
Description: as §1, §2

[2] = tested on: A. baumannii clinical isolate 1790; assay type: cell-based, Acinetobacter baumannii; conditions: clinical isolate 1790, 24 h
Description: as §1, §2

[3] = tested on: A. baumannii clinical isolate 1791; assay type: cell-based, Acinetobacter baumannii; conditions: clinical isolate 1791, 24 h
Description: as §1, §2

[4] = tested on: A. baumannii clinical isolate 1795; assay type: cell-based, Acinetobacter baumannii; conditions: clinical isolate 1795, 24 h
Description: as §1, §2

[5] = tested on: A. baumannii clinical isolate 1797; assay type: cell-based, Acinetobacter baumannii; conditions: clinical isolate 1797, 24 h
Description: as §1, §2

[6] = tested on: A. baumannii clinical isolate S3; assay type: cell-based, Acinetobacter baumannii; conditions: clinical isolate S3, 24 h
Description: as §1, §2

[7] = tested on: A. baumannii clinical isolate S5; assay type: cell-based, Acinetobacter baumannii; conditions: clinical isolate S5, 24 h
Description: as §1, §2

C. albicans = test: Toxicity assessment, MIC against C. albicans; assay type: cell-based, Candida albicans; conditions: Brady lab strain; yeast extract-peptone-dextrose; surrogate for cytotoxicity; duplicate
Description: as §1, with “Liquid chromatography-mass spectrometry (LC-MS) analyses were performed by using an Acquity system (Waters Corporation).” left out
Standard susceptibility assays were performed in LB medium in 96-well microtiter plates to determine the MIC by the broth microdilution method in accordance with protocols recommended by Clinical and Laboratory Standards Institute ([35]). Cytotoxicity was assessed using human HT-29 cells based on a similar broth microdilution method ([36]). […] Cell viability was determined by visual inspection.

[8] = tested on: MDR A. baumannii strain AB5075; test: microbe, parasite or virus in culture; assay type: cell-based, Acinetobacter baumannii; conditions: Acinetobacter baumannii; MDR strain AB5075; read-out: in vitro MIC, A. baumannii AB5075
Description: as §2

[9] = tested on: MDR A. baumannii strain AB5075; test: Rat cutaneous wound model, efficacy; assay type: in vivo, Sprague-Dawley rats; conditions: rat wound infected with AB5075 (500 CFU); topical 10 mg/ml twice daily from 0.5 h postinoculation; four wounds, ±1 SD
Description: The rat cutaneous wound model was used as described previously ([21]). Protocols for animal studies were approved by the Rutgers University Institutional Animal Care and Use Committee. All animals were humanely euthanized at the study endpoint by following the AVMA Guidelines for the Euthanasia of Animals. Immunocompetent Sprague-Dawley female rats (~200 g) were anesthetized by intraperitoneal injection of 100 mg/kg ketamine plus 10 mg/kg xylazine. Using a 1.0-cm-diameter disposable biopsy punch, two symmetrical wounds were created on the dorsum of each rat. A circular gauze dressing 8 mm in diameter was saturated overnight with either vehicle or 4F at 10 mg/ml in sterile centrifuge tubes. To assess tolerability, the rats were weighed daily and observed for wound healing, behavior changes, and visible adverse drug effects for 5 days. To assess efficacy, A. baumannii strain AB5075 was grown overnight and the culture was diluted to provide the challenge inoculum (500 CFU) as 50 μl of bacterial suspension in 0.9% (wt/vol) NaCl. A circular gauze dressing 8 mm in diameter was saturated overnight with vehicle, tetracycline, or 4F at 10 mg/ml in sterile centrifuge tubes. These saturated dressings were topically applied to the wound site with sterile forceps twice daily, starting at 30 min postinoculation, for 6 days. Rats were observed twice daily for morbidity and possible signs of acute toxicity. Two and four independent cutaneous wounds were tested in tolerability and efficacy assessments, respectively.

| SMILES | MIC Bacillus subtilis (Bacillus subtilis) | MIC Enterococcus faecalis (Enterococcus faecalis) | MIC Lactobacillus rhamnosus (Lactobacillus rhamnosus) | MIC Staphylococcus aureus (Staphylococcus aureus) | MIC Streptococcus sobrinus (Streptococcus sobrinus) | MIC Acinetobacter baumannii (Acinetobacter baumannii; 24 h) | MIC Enterococcus faecium (Enterococcus faecium; 24 h) | MIC Enterobacter cloacae (Enterobacter cloacae) | MIC Klebsiella pneumoniae (Klebsiella pneumoniae) | MIC Pseudomonas aeruginosa (Pseudomonas aeruginosa) | further results |
| --- | --- | --- | --- | --- | --- | --- | --- | --- | --- | --- | --- |
| CCCCCCCCCC(=O)N[C@H](Cc1ccccc1)C(=O)N[C@H](CCCN)C(=O)N[C@@H](C(=O)N[C@H](CO)C(=O)N[C@H](Cc1c[nH]c2ccccc12)C(=O)N[C@@H](CO)C(=O)N[C@@H](CO)C(=O)N[C@H](CCCN)C(=O)N[C@@H](Cc1c[nH]c2ccccc12)C(=O)N[C@@H](CO)C(=O)N[C@H](C(=O)N[C@@H](C(=O)N[C@@H](CCCN)C(=O)O)[C@H](C)CC)C(C)C)[C@H](C)CC [1W, paenimucillin B] (Decanoyl-[dF][dOrn][dI][dS][dW]SS[dOrn]WSV[dI][Orn]-OH) | 16 µg/mL (≈ 9.37 µM) | 128 µg/mL (≈ 74.9 µM) | 2 µg/mL (≈ 1.17 µM) | 64 µg/mL (≈ 37.5 µM) | 1 µg/mL (≈ 0.585 µM) | 128 µg/mL (≈ 74.9 µM) | 4 µg/mL (≈ 2.34 µM) | – | – | – | – |
| CC[C@@H](C)[C@@H](NC(=O)[C@@H](NC(=O)[C@H](CO)NC(=O)[C@H](Cc1c[nH]c2ccccc12)NC(=O)[C@@H](CCCN)NC(=O)[C@H](CO)NC(=O)[C@H](CO)NC(=O)[C@@H](Cc1c[nH]c2ccccc12)NC(=O)[C@@H](CO)NC(=O)[C@H](NC(=O)[C@@H](CCCN)NC(=O)[C@@H](Cc1ccccc1)NC(C)=O)[C@H](C)CC)C(C)C)C(=O)N[C@@H](CCCN)C(=O)O [4W] (Ac-[dF][dOrn][dI][dS][dW]SS[dOrn]WSV[dI][Orn]-OH) | 1 µg/mL (≈ 0.627 µM) | 4 µg/mL (≈ 2.51 µM) | 2 µg/mL (≈ 1.25 µM) | 4 µg/mL (≈ 2.51 µM) | 2 µg/mL (≈ 1.25 µM) | 1 µg/mL (≈ 0.627 µM) | 32 µg/mL (≈ 20.1 µM) | 2 µg/mL (≈ 1.25 µM) | 2 µg/mL (≈ 1.25 µM) | 16 µg/mL (≈ 10 µM) | MIC for A. baumannii clinical isolate 1788 [1]: 2 µg/mL; MIC for A. baumannii clinical isolate 1790 [2]: 0.5 µg/mL; MIC for A. baumannii clinical isolate 1791 [3]: 0.5 µg/mL; MIC for A. baumannii clinical isolate 1795 [4]: 2 µg/mL; MIC for A. baumannii clinical isolate 1797 [5]: 2 µg/mL; MIC for A. baumannii clinical isolate S3 [6]: 4 µg/mL; MIC for A. baumannii clinical isolate S5 [7]: 4 µg/mL; MIC, toxicity assessment, C. albicans (C. albicans): 128 µg/mL (≈ 80.2 µM) |
| CN(C)[C@@H]1C(O)=C(C(N)=O)C(=O)[C@@]2(O)C(O)=C3C(=O)c4c(O)cccc4[C@@](C)(O)[C@H]3C[C@@H]12 [tetracycline, reference compound] | – | – | – | – | – | – | – | – | – | – | MIC [8]: 0.25 µg/mL (≈ 0.563 µM); bacterial burden of wound, day 3 [9]: 6.4 ± 0.31 log CFU |

Second part, led by results:

| MIC Bacillus subtilis (Bacillus subtilis) | MIC Enterococcus faecalis (Enterococcus faecalis) | MIC Lactobacillus rhamnosus (Lactobacillus rhamnosus) | MIC Staphylococcus aureus (Staphylococcus aureus) | MIC Streptococcus sobrinus (Streptococcus sobrinus) | MIC Acinetobacter baumannii (Acinetobacter baumannii; 24 h) | MIC Enterococcus faecium (Enterococcus faecium; 24 h) | MIC Enterobacter cloacae (Enterobacter cloacae) | MIC Klebsiella pneumoniae (Klebsiella pneumoniae) | MIC Pseudomonas aeruginosa (Pseudomonas aeruginosa) | SMILES | further results |
| --- | --- | --- | --- | --- | --- | --- | --- | --- | --- | --- | --- |
| 4 µg/mL (≈ 2.45 µM) | 32 µg/mL (≈ 19.6 µM) | 16 µg/mL (≈ 9.82 µM) | 16 µg/mL (≈ 9.82 µM) | 2 µg/mL (≈ 1.23 µM) | – | – | – | – | – | CCCCCCCCCC(=O)N[C@H](Cc1ccccc1)C(=O)N[C@H](CCCN)C(=O)N[C@@H](C(=O)N[C@H](CO)C(=O)N[C@H](Cc1ccccc1)C(=O)N[C@@H](CO)C(=O)N[C@@H](CO)C(=O)N[C@H](CCCN)C(=O)N[C@@H](Cc1ccccc1)C(=O)N[C@@H](CO)C(=O)N[C@H](C(=O)N[C@@H](C(=O)N[C@@H](CCCN)C(=O)O)[C@H](C)CC)C(C)C)[C@H](C)CC [1F, paenimucillin A] (Decanoyl-[dF][dOrn][dI][dS][dF]SS[dOrn]FSV[dI][Orn]-OH) | MIC Acinetobacter baumannii (Acinetobacter baumannii; strain ATCC 17978, LB medium, broth microdilution, duplicate): 16 µg/mL (≈ 9.82 µM); MIC Enterococcus faecium (Enterococcus faecium; strain Com15, LB medium, broth microdilution, duplicate): 4 µg/mL (≈ 2.45 µM) |
| 16 µg/mL (≈ 10.8 µM) | 32 µg/mL (≈ 21.7 µM) | 128 µg/mL (≈ 86.7 µM) | 64 µg/mL (≈ 43.4 µM) | 64 µg/mL (≈ 43.4 µM) | 32 µg/mL (≈ 21.7 µM) | 32 µg/mL (≈ 21.7 µM) | 8 µg/mL (≈ 5.42 µM) | 4 µg/mL (≈ 2.71 µM) | 64 µg/mL (≈ 43.4 µM) | CC[C@@H](C)[C@@H](NC(=O)[C@@H](NC(=O)[C@H](CO)NC(=O)[C@H](Cc1ccccc1)NC(=O)[C@@H](CCCN)NC(=O)[C@H](CO)NC(=O)[C@H](CO)NC(=O)[C@@H](Cc1ccccc1)NC(=O)[C@@H](CO)NC(=O)[C@H](NC(=O)[C@@H](CCCN)NC(=O)[C@H](N)Cc1ccccc1)[C@H](C)CC)C(C)C)C(=O)N[C@@H](CCCN)C(=O)O [5F] (H-[dF][dOrn][dI][dS][dF]SS[dOrn]FSV[dI][Orn]-OH) | – |
| 2 µg/mL (≈ 1.29 µM) | 4 µg/mL (≈ 2.57 µM) | 4 µg/mL (≈ 2.57 µM) | 8 µg/mL (≈ 5.15 µM) | 4 µg/mL (≈ 2.57 µM) | 4 µg/mL (≈ 2.57 µM) | 8 µg/mL (≈ 5.15 µM) | 4 µg/mL (≈ 2.57 µM) | 4 µg/mL (≈ 2.57 µM) | 16 µg/mL (≈ 10.3 µM) | CC[C@@H](C)[C@@H](NC(=O)[C@@H](NC(=O)[C@H](CO)NC(=O)[C@H](Cc1c[nH]c2ccccc12)NC(=O)[C@@H](CCCN)NC(=O)[C@H](CO)NC(=O)[C@H](CO)NC(=O)[C@@H](Cc1c[nH]c2ccccc12)NC(=O)[C@@H](CO)NC(=O)[C@H](NC(=O)[C@@H](CCCN)NC(=O)[C@H](N)Cc1ccccc1)[C@H](C)CC)C(C)C)C(=O)N[C@@H](CCCN)C(=O)O [5W] (H-[dF][dOrn][dI][dS][dW]SS[dOrn]WSV[dI][Orn]-OH) | – |
